Test system: adult female Wistar rats
Assay: Radiotelemetric measurement of blood pressure and heart rate of conscious rats
Assay type: in vivo, rat
Settings: 5 and 15 mg/kg, oral, telemetry over 24 hours
Description: A commercially available telemetry system from Data Sciences International DSI, USA, was employed for the measurements on conscious rats described below. The system consists of 3 main components: (1) implantable transmitters (Physiotel® telemetry transmitter), (2) receivers (Physiotel® receiver), which are linked via a multiplexer (DSI Data Exchange Matrix) to a (3) data acquisition computer. The telemetry system makes it possible to continuously record blood pressure, heart rate and body motion of conscious animals in their usual habitat.
The studies were conducted on adult female Wistar rats with a body weight of >200 g. After transmitter implantation, the experimental animals were housed singly in type III Makrolon® cages. They had free access to standard feed and water. The day/night rhythm in the test laboratory was set by changing the illumination of the room.
The telemetry transmitters used (PA-C40, DSI) were surgically implanted under aseptic conditions in the experimental animals at least 14 days before the first experimental use.
For the implantation, the fasted animals were anaesthetized with isoflurane (IsoFlo®, Abbott, initiation 5%, maintenance 2%) and shaved and disinfected over a large area of their abdomens. […]
Each of the instrumented rats living in the system was assigned a separate receiving antenna (RPC-1 Receiver, DSI). […] The signals emitted were detected online by a data acquisition system (Dataquest™ A.R.T. for Windows, DSI) and processed accordingly.
In the standard procedure, the following were measured for 10-second periods in each case: (1) systolic blood pressure (SBP), (2) diastolic blood pressure (DBP), (3) mean arterial pressure (MAP), (4) heart rate (HR) and (5) activity (ACT). These parameters were measured over 24 hours after administration.
The acquisition of measurements was repeated under computer control at 5-minute intervals. The source data obtained as absolute values were corrected in the diagram with the currently measured barometric pressure (Ambient Pressure Reference Monitor, APR-1, DSI). […]

CC1CCCN(C2CCN(C(=O)c3ccc(C(C)(C)O)cc3)CC2)C1 (single isomer, unassigned) [Example 8, [4-(1-Hydroxy-1-methylethyl)phenyl)](3-methyl-1,4′-bipiperidin-1′-yl)methanone, (−)-enantiomer]
blood pressure: without any effect on blood pressure
heart rate: slight transient increase of the heart rate

— patent publication US20160318866A1, “SUBSTITUTED BIPIPERIDINYL DERIVATIVES” (Bayer Pharma Aktiengesellschaft, priority 2013, published 2016)
